Experimental data: patent publication US20230212122A1, “MITOCHONDRIAL TARGETING COMPOUNDS FOR THE TREATMENT OF ASSOCIATED DISEASES” (The Regents of the University of Michigan, priority 2020, published 2023)

Tested on: UM16 cell line
Test: GSEA of Bru-seq data (hallmark, KEGG, GO pathways, transcription factors)
Format: cell-based
Set-up: ES KEGG_MISMATCH_REPAIR / ES KEGG_HUNTINGTONS_DISEASE / ES KEGG_ALZHEIMERS_DISEASE / ES KEGG_VIBRIO_CHOLERAE_INFECTION / NES KEGG_VIBRIO_CHOLERAE_INFECTION / ES KEGG_RIBOSOME / NES KEGG_RIBOSOME / NES KEGG_RNA_POLYMERASE: dose or concentration left out as unconfirmed
Source text: Consistent with this observation, there are also massive metabolite pathways influenced including starch and sucrose metabolism, glycolysis and gluconeogenesis, purine metabolism, pyrimidine metabolism, N-glycan biosynthesis, etc.

[1] = 5 μM, 4 hours, transcription factors
[2] = GO_AMIDE_BIOSYNTHETIC_PROCESS, 5 μM, 4 hours, FDR q-val 1.55E−04
[3] = GO_CYTOSOLIC_LARGE_RIBOSOMAL_SUBUNIT, 5 μM, 4 hours, FDR q-val 0
[4] = GO_CYTOSOLIC_PART, 5 μM, 4 hours, FDR q-val 0
[5] = GO_CYTOSOLIC_RIBOSOME, 5 μM, 4 hours, FDR q-val 0
[6] = GO_ESTABLISHMENT_OF_PROTEIN_LOCALIZATION_TO_ENDOPLASMIC_RETICULUM, 5 μM, 4 hours, FDR q-val 0
[7] = GO_LARGE_RIBOSOMAL_SUBUNIT, 5 μM, 4 hours, FDR q-val 0
[8] = GO_MATURATION_OF_SSU_RRNA, 5 μM, 4 hours, FDR q-val 6.60E−05
[9] = GO_MULTI_ORGANISM_METABOLIC_PROCESS, 5 μM, 4 hours, FDR q-val 0
[10] = GO_NCRNA_METABOLIC_PROCESS, 5 μM, 4 hours, FDR q-val 0
[11] = GO_NCRNA_PROCESSING, 5 μM, 4 hours, FDR q-val 0
[12] = GO_NUCLEAR_TRANSCRIBED_MRNA_CATABOLIC_PROCESS_NONSENSE_MEDIATED_DECAY, 5 μM, 4 hours, FDR q-val 3.62E−05
[13] = GO_NUCLEOLAR_PART, 5 μM, 4 hours, FDR q-val 0
[14] = GO_PEPTIDE_METABOLIC_PROCESS, 5 μM, 4 hours, FDR q-val 3.46E−05
[15] = GO_PRERIBOSOME, 5 μM, 4 hours, FDR q-val 0
[16] = GO_PROTEIN_LOCALIZATION_TO_ENDOPLASMIC_RETICULUM, 5 μM, 4 hours, FDR q-val 0
[17] = GO_RIBONUCLEOPROTEIN_COMPLEX_BIOGENESIS, 5 μM, 4 hours, FDR q-val 0
[18] = GO_RIBOSOMAL_SMALL_SUBUNIT_BIOGENESIS, 5 μM, 4 hours, FDR q-val 0
[19] = GO_RIBOSOMAL_SUBUNIT, 5 μM, 4 hours, FDR q-val 0
[20] = GO_RIBOSOME, 5 μM, 4 hours, FDR q-val 0
[21] = GO_RIBOSOME_BIOGENESIS, 5 μM, 4 hours, FDR q-val 0
[22] = GO_RRNA_BINDING, 5 μM, 4 hours, FDR q-val 0
[23] = GO_RRNA_METABOLIC_PROCESS, 5 μM, 4 hours, FDR q-val 0
[24] = GO_STRUCTURAL_CONSTITUENT_OF_RIBOSOME, 5 μM, 4 hours, FDR q-val 0
[25] = GO_TRANSLATIONAL_INITIATION, 5 μM, 4 hours, FDR q-val 0
[26] = GO_TRNA_PROCESSING, 5 μM, 4 hours, FDR q-val 3.79E−05
[27] = transcription factor set AAAYWAACM_HFH4_01, 5 μM, 4 hours, FDR q-val 0.013
[28] = transcription factor set AP4_Q5, 5 μM, 4 hours, FDR q-val 0.043
[29] = transcription factor set ATF1_Q6, 5 μM, 4 hours, FDR q-val 0.053
[30] = transcription factor set FAC1_01, 5 μM, 4 hours, FDR q-val 0.043
[31] = transcription factor set FOXO1_01, 5 μM, 4 hours, FDR q-val 0.039
[32] = transcription factor set FOXO3——01, 5 μM, 4 hours, FDR q-val 0.015
[33] = transcription factor set FREAC2_01, 5 μM, 4 hours, FDR q-val 0.008
[34] = transcription factor set HFH3_01, 5 μM, 4 hours, FDR q-val 0.042
[35] = transcription factor set OCT_Q6, 5 μM, 4 hours, FDR q-val 0.051
[36] = transcription factor set RTAAACA_FREAC2_01, 5 μM, 4 hours, FDR q-val 0.025

## CCOC(=O)[C@@H]1CCCN(S(=O)(=O)c2ccc(S(=O)(=O)N(CC)CC)cc2)C1 [DX2-201, ethyl (R)-1-((4-(N,N-diethylsulfamoyl)phenyl)sulfonyl)piperidine-3-carboxylate]
[1]
  ES E2F1_Q6: −0.355
  ES E2F1_Q6_01: −0.352
  ES E2F_03: −0.360
  ES E2F_Q6: −0.352
  ES GGAANCGGAANY_UNKNOWN: −0.409
  ES MYCMAX_01: −0.425
  ES MYC_Q2: −0.429
  ES NMYC_01: −0.350
  ES SGCGSSAAA_E2F1DP2_01: −0.373
  ES YY1_Q6: −0.372
  NES E2F1_Q6: −1.568
  NES E2F1_Q6_01: −1.578
  NES E2F_03: −1.597
  NES E2F_Q6: −1.565
  NES GGAANCGGAANY_UNKNOWN: −1.661
  NES MYCMAX_01: −1.853
  NES MYC_Q2: −1.792
  NES NMYC_01: −1.545
  NES SGCGSSAAA_E2F1DP2_01: −1.581
  NES YY1_Q6: −1.643
4 hours
  ES KEGG_ALZHEIMERS_DISEASE: −0.3872
  ES KEGG_HUNTINGTONS_DISEASE: −0.4035
  ES KEGG_MISMATCH_REPAIR: −0.6381
  ES KEGG_RIBOSOME: −0.6266
  ES KEGG_VIBRIO_CHOLERAE_INFECTION: −0.4430
  NES KEGG_RIBOSOME: −2.4526
  NES KEGG_RNA_POLYMERASE: −1.9613
  NES KEGG_VIBRIO_CHOLERAE_INFECTION: −1.4689
4 hours of treatment
  DNA repair and mismatch repair gene sets (Bru-seq): downregulated
  glycolysis pathway (Bru-seq): dramatically upregulated
  myc target gene sets and E2F target gene set (Bru-seq): downregulated
  oxidative phosphorylation (Bru-seq): significantly downregulated
[2]
  ES: −0.454
  NES: −2.193
[3]
  ES: −0.629
  NES: −2.298
[4]
  ES: −0.537
  NES: −2.371
[5]
  ES: −0.626
  NES: −2.548
[6]
  ES: −0.589
  NES: −2.417
[7]
  ES: −0.585
  NES: −2.298
[8]
  ES: −0.642
  NES: −2.206
[9]
  ES: −0.557
  NES: −2.388
[10]
  ES: −0.528
  NES: −2.591
[11]
  ES: −0.594
  NES: −2.802
[12]
  ES: −0.539
  NES: −2.231
[13]
  ES: −0.630
  NES: −2.294
[14]
  ES: −0.461
  NES: −2.222
[15]
  ES: −0.648
  NES: −2.348
[16]
  ES: −0.563
  NES: −2.329
[17]
  ES: −0.552
  NES: −2.663
[18]
  ES: −0.653
  NES: −2.377
[19]
  ES: −0.581
  NES: −2.491
[20]
  ES: −0.589
  NES: −2.626
[21]
  ES: −0.616
  NES: −2.869
[22]
  ES: −0.650
  NES: −2.367
[23]
  ES: −0.604
  NES: −2.757
[24]
  ES: −0.539
  NES: −2.395
[25]
  ES: −0.590
  NES: −2.521
[26]
  ES: −0.559
  NES: −2.240
[27]
  ES: 0.431
  NES: 1.896
[28]
  ES: 0.393
  NES: 1.743
Transcription factor set AP4_Q6, 5 μM, 4 hours, FDR q-val 0.078
  ES: 0.377
Transcription factor set AREB6_04, 5 μM, 4 hours, FDR q-val 0.098
  ES: 0.346
[29]
  ES: 0.383
  NES: 1.701
Transcription factor set E47_01, 5 μM, 4 hours, FDR q-val 0.060
  ES: 0.363
[30]
  ES: 0.394
  NES: 1.751
Transcription factor set FOXJ2_02, 5 μM, 4 hours, FDR q-val 0.090
  ES: 0.364
[31]
  ES: 0.384
  NES: 1.732
Transcription factor set FOXO1_02, 5 μM, 4 hours, FDR q-val 0.007
  ES: 0.459
[32]
  ES: 0.417
  NES: 1.860
Transcription factor set FOXO4_01, 5 μM, 4 hours, FDR q-val 0.014
  ES: 0.464
Transcription factor set FOXO4_02, 5 μM, 4 hours, FDR q-val 0.007
  ES: 0.454
[33]
  ES: 0.440
  NES: 1.964
Transcription factor set FREAC3_01, 5 μM, 4 hours, FDR q-val 0.058
  ES: 0.375
[34]
  ES: 0.401
  NES: 1.733
Transcription factor set HNF3_Q6, 5 μM, 4 hours, FDR q-val 0.073
  ES: 0.392
Transcription factor set NKX62_Q2, 5 μM, 4 hours, FDR q-val 0.058
  ES: 0.387
Transcription factor set OCT1_Q5_01, 5 μM, 4 hours, FDR q-val 0.094
  ES: 0.357
[35]
  ES: 0.381
  NES: 1.697
Transcription factor set PAX2_02, 5 μM, 4 hours, FDR q-val 0.061
  ES: 0.374
[36]
  ES: 0.344
  NES: 1.816
Transcription factor set RYCACNNRNNRNCAG_UNKNOWN, 5 μM, 4 hours, FDR q-val 0.075
  ES: 0.462
Transcription factor set TTANWNANTGGM_UNKNOWN, 5 μM, 4 hours, FDR q-val 0.051
  ES: 0.511
Transcription factor set YWATTWNNRGCT_UNKNOWN, 5 μM, 4 hours, FDR q-val 0.059
  ES: 0.482
